Source: patent publication US20210078972A1, “QUINOLINE OR QUINAZOLINE COMPOUND AND APPLICATION THEREOF” (HAIHE BIOPHARMA CO., LTD., priority 2018, published 2021)

Key:
[1] = system: MV4-11 cells; assay: MV4-11 cell proliferation, CCK-8; type: cell-based; details: Homo sapiens, 72 h, read-out: IC50 of inhibition of proliferation of MV4-11 cells
Procedure: The inhibitory effects of the compounds on the proliferation of MV4-11 cells were detected by a CCK-8 cell counting kit (Dojindo). The specific steps are as follows: MV4-11 cells in the logarithmic phase were seeded into a 96-well culture plate at a suitable density for 90 μL per well. After overnight cultivation, the compounds at different concentrations were added to act for 72 hr, and a solvent control group was set (negative control). After 72 h of the compounds acting on the cells, the effects of the compounds on cell proliferation were detected using the CCK-8 cell counting kit (Dojindo). 10 μL of CCK-8 reagent was added to each well and the plate was placed in an incubator at 37° C. for 2-4 hours. After that, a full-wavelength microplate enzyme-labeling instrument SpectraMax 190 was used to read with a measurement wavelength of 450 nm.
The inhibition rate (%) of the compound on tumor cell growth was calculated by the following formula:
Inhibition rate (%)=(OD control well−OD administration well)/OD control well×100%
The IC50 values were obtained by regression with the four-parameter method using the software attached to the enzyme-labeling instrument.

[2] = target: T1, Flt3 kinase (Homo sapiens, UniProt P36888); assay: Flt3 kinase inhibition, Z'-LYTE FRET; type: biochemical; details: ATP 500 μM
T1 construct: purchased life PV6253
T1 sequence (P36888 27-993): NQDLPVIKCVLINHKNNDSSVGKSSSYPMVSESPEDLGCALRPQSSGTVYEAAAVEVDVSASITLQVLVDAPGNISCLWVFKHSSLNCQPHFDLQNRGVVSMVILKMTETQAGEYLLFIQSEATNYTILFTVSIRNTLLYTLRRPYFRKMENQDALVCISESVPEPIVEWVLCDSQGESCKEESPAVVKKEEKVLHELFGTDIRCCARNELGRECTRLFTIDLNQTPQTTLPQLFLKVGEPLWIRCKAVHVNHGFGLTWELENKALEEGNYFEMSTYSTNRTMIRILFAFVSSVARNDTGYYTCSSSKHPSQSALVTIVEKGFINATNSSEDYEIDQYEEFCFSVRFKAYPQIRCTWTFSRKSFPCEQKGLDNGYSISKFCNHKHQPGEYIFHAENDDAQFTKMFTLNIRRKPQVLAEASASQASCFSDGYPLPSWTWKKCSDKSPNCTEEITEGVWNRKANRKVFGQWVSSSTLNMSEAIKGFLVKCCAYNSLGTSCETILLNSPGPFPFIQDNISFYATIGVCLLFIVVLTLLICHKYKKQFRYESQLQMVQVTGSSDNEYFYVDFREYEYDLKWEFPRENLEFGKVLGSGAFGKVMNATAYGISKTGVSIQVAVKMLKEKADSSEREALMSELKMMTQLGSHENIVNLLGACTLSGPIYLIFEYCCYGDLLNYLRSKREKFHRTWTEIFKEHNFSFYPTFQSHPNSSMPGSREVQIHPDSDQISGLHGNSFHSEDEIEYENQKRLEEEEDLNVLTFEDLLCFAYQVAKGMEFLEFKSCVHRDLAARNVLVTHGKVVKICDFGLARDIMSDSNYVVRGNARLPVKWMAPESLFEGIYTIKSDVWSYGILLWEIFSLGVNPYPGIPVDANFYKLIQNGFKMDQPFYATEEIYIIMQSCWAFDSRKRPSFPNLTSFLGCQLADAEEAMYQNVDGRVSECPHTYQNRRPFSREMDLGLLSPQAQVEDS
Source text: Detection of the activity of kinase: the inhibitory activities of the compounds against Flt3 kinase (life, PV6253) were detected through a second-order reaction by the Z′-LYTE™ technology (detected by fluorescence, enzyme-coupled form, based on the difference in a sensitivity of phosphorylated and non-phosphorylated polypeptides to proteolytic cleavage), based on the principle of fluorescence resonance energy transfer (FRET), using Z′-LYTE™ FRET peptide substrate (Z′-LYTE™ Tyrosine 2 Peptide Substrate, Invitrogen, PV3191).
Enzymatic reaction: To a 384-well plate were added 5 μL of enzyme-substrate system (50 mM HEPES, pH 7.5, 0.01% BRU-35, 10 mM MgC2, 1 mM EGTA), 2.5 μL of a compound (concentration gradient) and 2.5 μL of a mixed solution of ATP (a final concentration of a substrate Z′-LYTE™ Tyrosine 2 Peptide Substrate was 2 μM, and a final concentration of ATP was 500 μM), and then the plate was incubated at 37° C. in the dark for 1 h.
Detecting reaction: 5 μL of Development Solution (1:64 dilution) was added to each well and the plate was incubated at 37° C. in the dark for 1 h, then 5 μL of Stop Reagent was added.
The data analysis method is as follows:
Phosphorylation ratio=1−{(emission ratio×F100%−C100%)/[C0%−C100%+emission ratio×(F100%−F0%)]}×100;
Inhibition rate=100×(1−compound phosphorylation ratio/negative control phosphorylation ratio).
The IC50 values were calculated by GraphPad Prism software.

Row | IC50 [1] | IC50 [2] | Compound
1 | < 0.4 nM | 1.9 nM | COc1cc2c(Oc3ccc(NC(=O)c4c(C)n(C)c5ccc(OC(F)(F)F)cc5c4=O)cc3F)ncnc2cc1OCCCN1CCOCC1 [TL-134, N-(3-fluoro-4-((6-methoxy-7-(3-morpholinopropoxy)quinazolin-4-yl)oxy)phenyl)-1,2-dim ethyl-4-oxo-6-(trifluoromethoxy)-1,4-dihydroquinoline-3-carboxamide]
2 | – | 10 nM | CCc1ccc2c(c1)c(=O)c(C(=O)Nc1ccc(Oc3ncnc4cc(OCCCN5CCOCC5)c(OC)cc34)c(F)c1)c(C)n2C [GDL5000123, 6-ethyl-N-(3-fluoro-4-((6-methoxy-7-(3-morpholinopropoxy)quinazolin-4-yl)oxy)phenyl)-1,2-dime thyl-4-oxo-1,4-dihydroquinoline-3-carboxamide, reference compound]
